# Literature values as cited in PubChem BioAssay AID1259409 (Chemical Carcinogenesis Research Information System (CCRIS), 2018).
# Tested on: rodent chemically induced tumor inhibition, incidence and multiplicity
# Test: CCRIS tumor inhibitor studies
# Settings: Dose [Inhibitor]: 0, Route [Inhibitor]: ORAL, Promoter: NONE USED
smiles,measurement,setting,value
Cc1c(-c2cnccn2)ssc1=S,"tumour outcome (control, treated, inhibition, significance)","Carcinogen: 2-AMINO-1-METHYL-6-PHENYLIMIDAZO[4,5-B]PYRIDINE, 105650-23-5, 200 PPM IN DIET FOR 52 WK (STUDY DURATION: 52 WK), Species: RAT, Strain/Sex: F344/MALE, Target Tissue: Type of Lesion: LYMPHATIC SYSTEM: LYMPHOMA, Dose [Carcinogen]: 400 PPM IN DIET FOR 10 WK THEN 200 PPM TO WK 14 FOLLOWED BY 100 PPM FOR DURATION OF STUDY","75%, 6%, 92%, not calculated"
same,"tumour outcome (control, treated, inhibition, significance)","Carcinogen: 2-AMINO-1-METHYL-6-PHENYLIMIDAZO[4,5-B]PYRIDINE, 105650-23-5, 400 PPM IN DIET FOR 52 WK (STUDY DURATION: 52 WK), Species: RAT, Strain/Sex: F344/MALE, Target Tissue: Type of Lesion: LYMPHATIC SYSTEM: LYMPHOMA, Dose [Carcinogen]: 400 PPM IN DIET FOR 10 WK THEN 200 PPM TO WK 14 FOLLOWED BY 100 PPM FOR DURATION OF STUDY","75%, 0%, 100%, not calculated"
same,"tumour outcome (control, treated, inhibition, significance)","Carcinogen: 4-(METHYLNITROSAMINO)-1-(3-PYRIDYL)-1-BUTANONE, 64091-91-4, 0.25 G/KG DIET (EFFECTIVE DOSE 3.31 UMOL/D) BEGINNING 2 WK PRIOR TO CARCINOGEN TREATMENT AND CONTINUING FOR DURATION, Species: MOUSE, Strain/Sex: STRAIN-A/FEMALE, Target Tissue: Type of Lesion: LUNG: TUMORS, Dose [Carcinogen]: 9.0-9.2 MG/MOUSE (TOTAL DOSE) IN DRINKING WATER ADMINISTERED OVER 7 WK","28/28 (100%), 25/25 (100%), 0%, not significant"
same,"tumour outcome (control, treated, inhibition, significance)","Carcinogen: AZOXYMETHANE, 25843-45-2, 200 PPM IN DIET 7 WK PRIOR TO CARCINOGEN TREATMENT AND CONTINUING FOR STUDY DURATION (STUDY DURATION: 59 WK), Species: RAT, Strain/Sex: F344/MALE, Target Tissue: Type of Lesion: COLON: ADENOCARCINOMA, Dose [Carcinogen]: 15 MG/KG 1/WK FOR 2 WK","72%, 47%, 35%, p<0.05"
same,"tumour outcome (control, treated, inhibition, significance)","Carcinogen: AZOXYMETHANE, 25843-45-2, 200 PPM IN DIET 7 WK PRIOR TO CARCINOGEN TREATMENT AND CONTINUING FOR STUDY DURATION (STUDY DURATION: 59 WK), Species: RAT, Strain/Sex: F344/MALE, Target Tissue: Type of Lesion: COLON: ADENOMA, Dose [Carcinogen]: 15 MG/KG 1/WK FOR 2 WK","14%, 6%, 57%, p<0.05"
same,"tumour outcome (control, treated, inhibition, significance)","Carcinogen: AZOXYMETHANE, 25843-45-2, 200 PPM IN DIET 7 WK PRIOR TO CARCINOGEN TREATMENT AND CONTINUING FOR STUDY DURATION (STUDY DURATION: 59 WK), Species: RAT, Strain/Sex: F344/MALE, Target Tissue: Type of Lesion: SMALL INTESTINE: ADENOCARCINOMA, Dose [Carcinogen]: 15 MG/KG 1/WK FOR 2 WK","50%, 16%, 68%, p<0.001"
same,"tumour outcome (control, treated, inhibition, significance)","Carcinogen: AZOXYMETHANE, 25843-45-2, 200 PPM IN DIET BEGINNING 2 WK PRIOR TO CARCINOGEN TREATMENT AND CONTINUING FOR 3 D POST LAST CARCINOGEN DOSE FOLLOWE, Species: RAT, Strain/Sex: F344/MALE, Target Tissue: Type of Lesion: COLON: INVASIVE ADENOCARCINOMA, Dose [Carcinogen]: 15 MG/KG 1/WK FOR 2 WK","33%, 3%, 91%, p<0.001"
same,"tumour outcome (control, treated, inhibition, significance)","Carcinogen: AZOXYMETHANE, 25843-45-2, 200 PPM IN DIET BEGINNING 2 WK PRIOR TO CARCINOGEN TREATMENT AND CONTINUING FOR 3 D POST LAST CARCINOGEN DOSE FOLLOWE, Species: RAT, Strain/Sex: F344/MALE, Target Tissue: Type of Lesion: COLON: NONINVASIVE ADENOCARCINOMA, Dose [Carcinogen]: 15 MG/KG 1/WK FOR 2 WK","53%, 43%, 19%, not significant"
same,"tumour outcome (control, treated, inhibition, significance)","Carcinogen: AZOXYMETHANE, 25843-45-2, 200 PPM IN DIET BEGINNING 2 WK PRIOR TO CARCINOGEN TREATMENT AND CONTINUING FOR 3 D POST LAST CARCINOGEN DOSE FOLLOWE, Species: RAT, Strain/Sex: F344/MALE, Target Tissue: Type of Lesion: SMALL INTESTINE: INVASIVE ADENOCARCINOMA, Dose [Carcinogen]: 15 MG/KG 1/WK FOR 2 WK","22%, 7%, 68%, p<0.05"
same,"tumour outcome (control, treated, inhibition, significance)","Carcinogen: AZOXYMETHANE, 25843-45-2, 200 PPM IN DIET BEGINNING 2 WK PRIOR TO CARCINOGEN TREATMENT AND CONTINUING FOR 3 D POST LAST CARCINOGEN DOSE FOLLOWE, Species: RAT, Strain/Sex: F344/MALE, Target Tissue: Type of Lesion: SMALL INTESTINE: NONINVASIVE ADENOCARCINOMA, Dose [Carcinogen]: 15 MG/KG 1/WK FOR 2 WK","6%, 3%, 50%, not significant"
same,"tumour outcome (control, treated, inhibition, significance)","Carcinogen: AZOXYMETHANE, 25843-45-2, 200 PPM IN DIET BEGINNING 3 D POST LAST CARCINOGEN DOSE AND CONTINUING FOR DURATION OF STUDY (STUDY DURATION: 56 WK), Species: RAT, Strain/Sex: F344/MALE, Target Tissue: Type of Lesion: COLON: INVASIVE ADENOCARCINOMA, Dose [Carcinogen]: 15 MG/KG 1/WK FOR 2 WK","33%, 0%, 100%, p<0.001"
same,"tumour outcome (control, treated, inhibition, significance)","Carcinogen: AZOXYMETHANE, 25843-45-2, 200 PPM IN DIET BEGINNING 3 D POST LAST CARCINOGEN DOSE AND CONTINUING FOR DURATION OF STUDY (STUDY DURATION: 56 WK), Species: RAT, Strain/Sex: F344/MALE, Target Tissue: Type of Lesion: COLON: NONINVASIVE ADENOCARCINOMA, Dose [Carcinogen]: 15 MG/KG 1/WK FOR 2 WK","53%, 73%, -38%, not significant"
same,"tumour outcome (control, treated, inhibition, significance)","Carcinogen: AZOXYMETHANE, 25843-45-2, 200 PPM IN DIET BEGINNING 3 D POST LAST CARCINOGEN DOSE AND CONTINUING FOR DURATION OF STUDY (STUDY DURATION: 56 WK), Species: RAT, Strain/Sex: F344/MALE, Target Tissue: Type of Lesion: SMALL INTESTINE: INVASIVE ADENOCARCINOMA, Dose [Carcinogen]: 15 MG/KG 1/WK FOR 2 WK","22%, 20%, 9%, not significant"
same,"tumour outcome (control, treated, inhibition, significance)","Carcinogen: AZOXYMETHANE, 25843-45-2, 200 PPM IN DIET BEGINNING 3 D POST LAST CARCINOGEN DOSE AND CONTINUING FOR DURATION OF STUDY (STUDY DURATION: 56 WK), Species: RAT, Strain/Sex: F344/MALE, Target Tissue: Type of Lesion: SMALL INTESTINE: NONINVASIVE ADENOCARCINOMA, Dose [Carcinogen]: 15 MG/KG 1/WK FOR 2 WK","6%, 3%, 50%, not significant"
same,"tumour outcome (control, treated, inhibition, significance)","Carcinogen: AZOXYMETHANE, 25843-45-2, 200 PPM IN DIET FOR 56 WK BEGINNING 2 WK PRIOR TO CARCINOGEN TREATMENT (STUDY DURATION: 56 WK), Species: RAT, Strain/Sex: F344/MALE, Target Tissue: Type of Lesion: COLON (DISTAL): TUMOR, Dose [Carcinogen]: 15 MG/KG 1/WK FOR 2 WK","47%, 28%, 40%, not significant"
same,"tumour outcome (control, treated, inhibition, significance)","Carcinogen: AZOXYMETHANE, 25843-45-2, 200 PPM IN DIET FOR 56 WK BEGINNING 2 WK PRIOR TO CARCINOGEN TREATMENT (STUDY DURATION: 56 WK), Species: RAT, Strain/Sex: F344/MALE, Target Tissue: Type of Lesion: COLON (PROXIMAL): TUMOR, Dose [Carcinogen]: 15 MG/KG 1/WK FOR 2 WK","39%, 30%, 23%, not significant"
